# Where a SMILES comes first, the peptide text is derived from it. Where no end group is shown, it is not given here. [ ]: non-standard residue; d: D form.
# What was measured:
# MRSA (clinical strain 1) = assay: microbe, parasite or virus in culture; type: cell-based; conditions: Staphylococcus aureus, 37° C. for 20 hours, tested twice, first/second value where not matched
# Description: (§1) Further, with respect to not only the above-described strains but also various other strains, the “minimum inhibitory concentration (MIC)” was measured as follows. MIC is the lowest concentration of an agent that may inhibit the growth of a bacterium. MIC is used as a parameter for the efficacy of an antibacterial agent, for the strength of bacterial sensitivity, or the like. The bacteria can grow (proliferate) when the concentration is not higher than MIC, and cannot grow when the concentration is higher than MIC. Its measurement is carried out according to a method defined as a standard method by Japanese Society of Chemotherapy or CLINICAL AND LABORATORY […] (CLSI), but, in this Example, its measurement was carried out by a broth microdilution method in accordance with “M100-S17/M7-A7” (Performance Standards for Antimicrobial Susceptibility Testing; Seventeenth Informational Supplement, Vol. 27 No. 1) published by CLSI on January, 2007. That is, sensitivity test of agents was carried out using a microtiter plate or test tubes.
# (§2) The bacteria were cultured in liquid media for 4 to 6 hours, and thereafter absorbances at A600 were measured. Bacterial suspensions were diluted with Mueller-Hinton broth (MHB) according to McFarland #0.5. Each strain was added so as to attain about 10^5 CFU/ml (final concentration). Each peptide was prepared to an optional concentration, and the solutions were serially diluted from the concentration. The polypeptide at each concentration stage was added to a microplate or test tubes, and the bacterial suspension was added thereto. Chloramphenicol, amphotericin B, ciprofloxacin, meropenem (MEPM), ciprofloxacin (CPFX), tobramycin (TOB) and oxacillin (OX) were used as positive controls. The plate was incubated at 37° C. for 20 hours, and the lowest concentration where bacterial growth was inhibited was regarded as the minimum inhibitory concentration.
# Staphylococcus aureus = assay: microbe, parasite or virus in culture; type: cell-based; conditions: 37° C. for 20 hours, tested twice, first/second value where not matched
# Description: as §1, §2
# [1] = tested on: Staphylococcus epidermidis; assay: MIC measurement, broth microdilution; type: cell-based; conditions: 37° C. for 20 hours, tested twice, first/second value where not matched
# Description: as §1, §2
# MRSA (clinical strain 2) = assay: microbe, parasite or virus in culture; type: cell-based, Staphylococcus aureus; conditions: Staphylococcus aureus, MRSA; 37° C. for 20 hours; tested twice, first/second value where not matched
# Description: as §1, §2
# MSSA (clinical strain 1) = assay: microbe, parasite or virus in culture; type: cell-based, Staphylococcus aureus; conditions: 37° C. for 20 hours; tested twice, first/second value where not matched
# Description: as §1, §2
# MSSA (clinical strain 2) = assay: microbe, parasite or virus in culture; type: cell-based, Staphylococcus aureus; conditions: Staphylococcus aureus, MSSA; 37° C. for 20 hours; tested twice, first/second value where not matched
# Description: as §1, §2
# [2] = Antibacterial activity, ATP assay (BacTiter-Glo); type: cell-based, Enterobacter aerogenes; conditions: Table 7, mean values; peptides 10 μg/mL, TOB 4.0, OX 4.0, MEPM 0.5 μg/mL; 37° C. 3 hours; relative to negative control; read-out: Viability, Enterobacteria (2)
# Description: The antibacterial activity of each of SR-08 and SR-07 polypeptides was measured using an ATP assay method. That is, using BacTiter-Glo Microbial Cell Viability Assay kit available from PROMEGA, the antibacterial activity of the peptides was evaluated from the viability of bacteria. In other words, ATP amount in viable bacteria in cases where the concentration of the peptides was 10 μg/mL was measured using a microtiter plate or test tubes. As controls, tobramycin (TOB), oxacillin (OX) and meropenem (MEPM) were used at the concentrations as respectively shown in Table 6 below.
# With respect to the strains, Escherichia coli: ATCC 25922 (Escherichia coli ATCC 25922), Pseudomonas aeruginosa: ATCC 27853 (Pseudomonas aeruginosa ATCC 27853), Staphylococcus aureus: ATCC29213 (Staphylococcus aureus ATCC29213), Klebsiella pneumoniae: JCM 1662 (Klebsiella pneumoniae JCM 1662), enterobacteria (1): JCM 1232 (Enterobacter cloacae JCM 1232), and enterobacteria (2): JCM 1235 (Enterobacter aerogenes JCM 1235), were used.
# The bacteria were cultured in media for 3 to 4 hours, and thereafter absorbances at A600 were measured. Bacterial suspensions were diluted with Mueller-Hinton broth (MHB) according to McFarland #0.5. Each strain was added so as to attain about 0.5-1×10^5 CFU/mL (final concentration) in terms of Escherichia coli. Each peptide was prepared and added to a microplate or test tubes so as to attain a final concentration of 10 μg/mL, and the bacterial suspension was added thereto. The plate was incubated at 37° C. for 3 hours, and the amount of ATP in the culture media was measured. Relative values were calculated by comparison with the negative control, and these values were regarded as the viability.
# [3] = tested on: Normal human dermal fibroblasts (NHDFs); type: cell-based
# Description: Next, the effect of these polypeptides on the growth of human umbilical vein endothelial cells (HUVECs) was studied. A cell growth activity of the polypeptides was examined using Cell Counting Kit (WST-1) available from Dojindo Laboratories. As a negative control (Control), polypeptide-free group was used. Cells (human umbilical vein endothelial cells: HUVECs) were plated in a 96-well plate (0.5×10^4 cells/well/100 μL, serum 1%). About 3 hours after plating the cells, the polypeptides (1, 3, 10, 30 or 100 μg/ml) and FGF (100 ng/ml) as a positive control were individually added thereto in an amount of 100 μL. To the unstimulated group, only a medium was added in an amount of 100 μL. The plate was left to stand in a CO2 incubator for about 48 hours. Thereafter, WST-1 reagent was added to each well in an amount of 20 μL, and then the plate was left to stand in a CO2 incubator for about 2 hours. Absorbances at wavelengths of 450 nm and 620 nm were measured using Wallac 1420 ARVOsx (Program: WST-1). A value of O.D.450-O.D.620 was calculated for each measurement. […] The cell growth activity was evaluated on the basis of the ratio of Net O.D.450 of polypeptide-containing groups relative to Net O.D.450 of the unstimulated group.
# Then, the effect on the growth of normal human dermal fibroblasts (NHDFs) was also studied by the same method as described above.
# [4] = Stability in rat serum (HPLC); type: in vitro ADME; conditions: 37° C.
# Description: (§3) The stability of the polypeptides in serum was evaluated. In human serum (purchased from KAC Co., Ltd.), or in rat serum obtained by collecting blood from a rat, then leaving the collected blood to stand at room temperature followed by centrifugation, each of the peptides was dissolved so as to attain a final concentration of 500 μg/mL, and the obtained solutions were left to stand at 37° C. After leaving to stand for 3 min or 10 min, these solutions were subjected to HPLC chromatogram analysis to detect peaks of the decomposition products, and calculate the ratio of the concentration of the peptides which remained in the solutions relative to the starting concentration. In addition, the half-lives of the peptides in serum were also calculated.
# [5] = Stability in human serum (HPLC); type: in vitro ADME; conditions: 37° C.
# Description: as §3
# Clostridium ramosum = assay: microbe, parasite or virus in culture; type: cell-based; conditions: 37° C. for 20 hours; tested twice, first/second value where not matched
# Description: as §1, §2
# Fusobacterium nucleatum = assay: microbe, parasite or virus in culture; type: cell-based; conditions: 37° C. for 20 hours; tested twice, first/second value where not matched
# Description: as §1, §2
# Acinetobacter baumanni = type: cell-based; conditions: 37° C. for 20 hours; tested twice, first/second value where not matched
# Description: as §1, §2
# Fusarium solani = type: cell-based; conditions: 37° C. for 20 hours; tested twice, first/second value where not matched
# Description: as §1, §2
# Pseudomonas aeruginosa = type: cell-based; conditions: 37° C. for 20 hours; tested twice, first/second value where not matched
# Description: as §1, §2
# [6] = tested on: Pseudomonas aeruginosa (clinical strain 1); assay: microbe, parasite or virus in culture; type: cell-based; conditions: 37° C. for 20 hours; tested twice, first/second value where not matched
# [7] = tested on: Pseudomonas aeruginosa (clinical strain 6); assay: MIC measurement, broth microdilution; type: cell-based; conditions: 37° C. for 20 hours; tested twice, first/second value where not matched
# [8] = tested on: Pseudomonas aeruginosa (clinical strain 8); assay: MIC measurement, broth microdilution; type: cell-based; conditions: 37° C. for 20 hours; tested twice, first/second value where not matched
# [9] = tested on: Pseudomonas aeruginosa (clinical strain 9); assay: MIC measurement, broth microdilution; type: cell-based; conditions: 37° C. for 20 hours; tested twice, first/second value where not matched
# [10] = tested on: Pseudomonas aeruginosa (clinical strain 12); assay: MIC measurement, broth microdilution; type: cell-based; conditions: 37° C. for 20 hours; tested twice, first/second value where not matched
# Escherichia coli = assay: MIC measurement, broth microdilution; type: cell-based; conditions: 37° C. for 20 hours; tested twice, first/second value where not matched
# Description: as §1, §2
molecule,measurement,setting,value
"Cc1onc(-c2ccccc2)c1C(=O)N[C@@H]1C(=O)N2[C@@H]1SC(C)(C)[C@@H]2C(=O)O [OX, oxacillin]",MIC,MRSA (clinical strain 1),< 4 µg/mL
same,MIC,Staphylococcus aureus,0.15 to 0.5 µg/mL
same,MIC,[1]; Staphylococcus epidermidis,0.15 to 0.5 µg/mL
same,MIC,MRSA (clinical strain 2),> 8 µg/mL
same,"MIC, MSSA (clinical strain 1)",MSSA (clinical strain 1),3/8
same,MIC,MSSA (clinical strain 2),< 2 µg/mL
CC[C@H](C)[C@H](NC(=O)[C@H](CC(C)C)NC(=O)[C@H](CCCCN)NC(=O)[C@H](CC(C)C)NC(=O)[C@@H](N)CCSC)C(=O)N[C@@H](Cc1ccccc1)C(=O)N[C@@H](CC(C)C)C(=O)N[C@@H](Cc1c[nH]cn1)C(=O)N[C@@H](CCCNC(=N)N)C(=O)N[C@@H](CC(C)C)C(=O)N[C@@H](CCCCN)C(=O)N[C@@H](CCCNC(=N)N)C(=O)N[C@@H](CCSC)C(=O)N[C@@H](CCCNC(=N)N)C(=O)N[C@@H](CCCCN)C(=O)N[C@@H](CCCNC(=N)N)C(=O)N[C@@H](CC(C)C)C(=O)N[C@H](CCCCN)C(=O)N[C@@H](CCCNC(=N)N)C(=O)N[C@@H](CCCCN)C(=O)O [SR-07] (H-MLKLIFLHRLKRMRKRL[dK]RK-OH; N-terminus and C-terminus assumed),viability,[2],16.5%
same,"Concentration above which the polypeptide tended to exhibit toxicity, NHDFs (FIG. 4)",[3],> 30000 ng/mL
same,"Ratio of peptide remaining relative to the starting concentration, rat serum, 0 min","[4]; 500 μg/mL, 0 min",100
same,"remaining at 0.05 h, 500 μg/mL","[4]; rat, rat serum, 3 min, read-out: Ratio of peptide remaining relative to the starting concentration, rat serum, 3 min",51%
same,"remaining at 10 min, 500 μg/mL","[4]; rat, rat serum, 10 min, read-out: Ratio of peptide remaining relative to the starting concentration, rat serum, 10 min",16.5%
same,half-life,"[4]; rat, serum, 500 μg/mL",4 min
same,"Ratio of peptide remaining relative to the starting concentration, human serum, 0 min","[5]; 500 μg/mL, 0 min",100
same,"remaining at 0.05 h, 500 μg/mL","[5]; human, human serum, 3 min, read-out: Ratio of peptide remaining relative to the starting concentration, human serum, 3 min",98%
same,"remaining at 10 min, 500 μg/mL","[5]; human, human serum, 10 min, read-out: Ratio of peptide remaining relative to the starting concentration, human serum, 10 min",64.3%
same,half-life,"[5]; human, serum, 500 μg/mL",15 min
KNLRRIIRKIIHIIKKYG [AP00196],"MIC, Clostridium ramosum",Clostridium ramosum,32/64
same,"MIC, Fusobacterium nucleatum",Fusobacterium nucleatum,2/4
same,"MIC, Acinetobacter baumanni",Acinetobacter baumanni,4/8
same,"MIC, Fusarium solani",Fusarium solani,4/8
same,"MIC, Pseudomonas aeruginosa",Pseudomonas aeruginosa,16/32
same,"MIC, Pseudomonas aeruginosa (clinical strain 1)",[6],16/64
same,"MIC, Pseudomonas aeruginosa (clinical strain 6)",[7],32/64
same,"MIC, Pseudomonas aeruginosa (clinical strain 8)",[8],32/64
same,"MIC, Pseudomonas aeruginosa (clinical strain 9)",[9],32/128
same,"MIC, Pseudomonas aeruginosa (clinical strain 12)",[10],16/32
same,"MIC, Escherichia coli",Escherichia coli,8/16
same,"MIC, Staphylococcus epidermidis",[1],8/16
same,"MIC, MSSA (clinical strain 1)",MSSA (clinical strain 1),16/32
